Test results: publication PMC10906223 (JCI Insight, 2024)
Values joined by “and” are separate entries in the source; they are usually repeats but may differ in a detail not shown here. Identical values can stand only once.

Key:
[1] = test system: primary mouse hepatocytes; assay: Glucose output from primary mouse hepatocytes; assay type: cell-based
Method: Primary hepatocyte culture was performed following previous publications ([63], [64]). Briefly, livers were extracted from C57BL/6J (n = 5), rinsed in HBSS, and minced. The minced tissue was treated with collagenase P solution (9 μg/mL) neutralized by DMEM containing 10% FBS. Following settling of undigested tissue, the supernatant was collected and centrifuged at 490g for 1 minute. The pellet was treated with red blood cell lysis buffer (8.26 g NH4Cl, 1 g NaHCO3, 0.037 g Na2EDTA in 1,000 mL of distilled water) for 3 minutes, diluted with HBSS containing 6% FBS, and centrifuged at 490g for 1 minute. The resulting pellet was washed 2 times using HBSS containing 6% FBS (290g, 1 minute, and 190g, 1 minute) and resuspended in HBSS containing 2% FBS. The procedure was repeated 2 additional times on the undigested tissue. The collected suspension was sequentially filtered through a 500 μm Steel Basket-Strainer (pluriSelect) and Falcon 100 µm Cell Strainer (Corning). After centrifugation (190g, 1 minute), the pellet was resuspended in DMEM (containing 10% FBS, 100 U/mL penicillin, and 100 μg/mL streptomycin), seeded in a 48-well cell culture plate (7.5 × 10^5 cells/ well), and incubated in a cell culture incubator, overnight. Cell viability and attachment were determined by trypan blue staining.

[2] = Plasma stability assay, CD-1 mouse plasma; assay type: in vitro ADME; details: for Ln (% Remaining): mouse plasma, 37°C, Figure 5B
Method: Pooled frozen plasma of CD-1 mice (n = 20; catalog MSE00PLK2M2N, Beijing Vital River Laboratory Animal Technology) or humans (n = 6, catalog […]2P2N, Bioreclamation IVT), equal numbers of males and females, was thawed in a 37°C water bath, and residual clots were removed by centrifugation (500g for 5 minutes). Plasma (98 μL) was aliquoted in each well of 96-well reaction plates using an Apricot automation workstation. WCDD301 (100 μM) or propantheline bromide (100 μM, as a positive control) was added (2 μL/well) to sets of wells assigned to blank or time points (T0, T10, T30, T60, and T120 minutes) and incubated at 37°C. At each time point, the reaction was stopped by adding stop solution (500 μL; a mixture of 200 ng/mL of tolbutamide and labetalol in acetonitrile), mixed thoroughly, sealed, shaken (20 minutes), and centrifuged (1,750g, 4°C, 20 minutes). A total of 150 μL of the supernatant from each well of the reaction plate was transferred to its corresponding bioanalysis plate for LC-MS/MS analysis. The remaining level (%) of the WCDD301 was calculated using the following equation: remaining (%) = (PAR at each time point/PAR at T0) × 100. PAR stands for the peak area ratio of the WCDD301 versus internal standard.

[3] = test system: STZ-induced diabetic mice; assay: Blood glucose in STZ-induced diabetic mice, once-daily oral WCDD301; assay type: in vivo, mouse; parameters: Blood glucose: unit: mg/dL; details: for Blood glucose: WCDD301 10 mg/kg oral once daily, 10 mg/kg
Method: Six cohorts of C57BL/6 mice (n = 10 each, equal numbers of females and males; the Jackson Laboratory) were fasted for 5 hours and injected intraperitoneally with 40 mg/kg STZ solution (MilliporeSigma, catalog 572201) for 5 consecutive days. STZ solution (40 mg/mL) was prepared within 5 minutes before injection using freshly prepared citrate buffer (0.1 M, pH 4.5). Nine days after the last injection, blood glucose levels were measured for 2 consecutive days, and those animals with constant values of 300 ± 20 mg/dL were considered as having early severe hyperglycemia.
We prepared sustained time-release pearls for oral administration in the mouse models. To this end, we combined FDA-approved excipients of Eastman BioSustane SAIB NF (product code: 41271-00, sample distribution from Eastman Company, Kingsport, Tennessee, USA; provided by Phillip Cook) and Agar (Lamda Biotech, catalog C110) at the ratio of 1:1.45 (w/w). We also prepared another type of sustained time-release pearl by mixing SAIB, Agar, and L (-) malic acid (MilliporeSigma, catalog 202-601-5) at the ratio of 1:1.4:0.2 (w/w/w). A homogenous paste mixture was prepared, and pearls were formed with 50–60 mg weight and approximately 2 mm diameter by pinching off the mixture and manually rolling.
We preweighed WCDD301 into microfuge tubes and reconstituted it using deionized water. Using a 10 μL pipette tip, we placed the calculated dose of WCDD301 (at the volume range of 1–1.5 μL) within the center of pearls. WCDD301 was placed into pearls 30–45 minutes before administration. For oral administration of pearls, we designed an applicator using a disposable plastic transfer pipette and syringe plunger lubricated with olive oil. Food intake and body weight in each experimental group (diabetic WCDD301-treated, diabetic placebo-treated, and nondiabetic placebo-treated NOD mice) were monitored daily for 4 weeks. Urine glucose was measured from individually caged NOD mice (nondiabetic placebo treated n = 2, diabetic placebo treated n = 2, and diabetic WCDD301 treated n = 4, 21–23 weeks old) with metabolic cages. Urine glucose was monitored every 24 hours for 10 days by semiquantitative measurements (P-STICKS, Millpledge Veterinary).
We applied the following therapeutic regimens in the fed state for oral dosing of pearls containing WCDD301. The therapeutic regimen for diabetic NOD mice with moderate hyperglycemia (n = 6–9; 6 females/3 males) or nondiabetic ones with blood glucose levels of < 140 mg/dL (females, n = 5) was dose 7.5 mg/kg, dosage once a day, and excipient SAIB-Agar, 50–60 mg. The therapeutic regimen for STZ-induced diabetic mice with early severe hyperglycemia (n = 3, placebo group; n = 4 treatment group, females) was dose 10 mg/kg, dosage once a day, and excipient SAIB-Agar-malic acid, 50–60 mg.

Q: For `CC(=O)OCC(N)(COC(C)=O)COC(C)=O` [WCDD301, 2-(acetoxymethyl)-2-aminopropane-1,3-diyl diacetate], which Glucagon-stimulated glucose output ([1]; 100 nM glucagon, 3 μM WCDD301) is on record?
A: Its Glucagon-stimulated glucose output is “did not alter glucagon-stimulated glucose output”.

Q: What about the “Glucose output from hepatocytes (Figure 6G)” value ([1]; WCDD301 +, Glucagon +) of the same compound?
A: The value was 15.2 and 14.9 and 17.2 and 21.

Q: What about the half-life at 2 µM ([2]; both sexes, CD-1, mouse, plasma) of the same compound?
A: The half-life at 2 µM was 1.75 h.

Q: What about the “Ln (% Remaining)” value ([2]; 10 min) of the same compound?
A: The value was -0.4.

Q: And the “Ln (% Remaining)” value ([2]; 60 min)?
A: The value was -0.55.

Q: What about the “Ln (% Remaining)” value ([2]; 120 min) of the same compound?
A: The value was -0.94.

Q: What about the Effect on hyperglycemia ([3]; 4-week dosing) of the same compound?
A: Its Effect on hyperglycemia is “normalized hyperglycemia”.

Q: What about the Blood glucose ([3]; Week 1, per mouse, before dosing 277-300, Figure 6F) of the same compound?
A: Its Blood glucose is 205 and 210 and 206 and 240.

Q: And the Blood glucose ([3]; Week 2, per mouse, Figure 6F)?
A: The Blood glucose was 180 and 170 and 145 and 210.

Q: And the Blood glucose ([3]; Week 3, per mouse, Figure 6F)?
A: Its Blood glucose is 145 and 150 and 135 and 156.

Q: And the Blood glucose ([3]; Week 4, per mouse, Figure 6F)?
A: Its Blood glucose is 125 and 119 and 121 and 130.
